Laboratory results as given in patent publication US11345697B1, “Crystalline berberine ascorbate salt, methods of preparation and applications thereof” (Beiture LLC, priority 2020, dated 2022).

Experiments:
[1] = cited from earlier work
[2] = Description: 50 mg of crystalline berberine ascorbate Form A (from example 1) was suspended in 0.20 ml of water.
50 mg of crystalline berberine chloride dihydrate (from Sigma-Aldrich) was suspended in 10 ml of water. […] The solubility residue was isolated by filtration.

[3] = 25° C.; AAPS PharmSciTech, 2010, 11(3), 1466-1475; cited from earlier work
[4] = Thermogravimetry analysis (TGA); type: physicochemical; settings: for TGA mass loss: heating from about 25° C. to about 100° C.
Description: TGA was performed on samples prepared according to standard methods using a Q SERIES™ Q5000 thermogravimetry analyzer available from TA Instruments INSTRUMENTS® (New Castle, Del.). A sample (approximately 5 mg) was placed into an aluminum sample pan and transferred to the TGA furnace. The instrument was purged with nitrogen at 50 mL/min and data collected between 25° C. and 300° C., using a dynamic heating rate of 10° C./minute. Thermal data was analyzed using standard software, e.g., Universal Analysis v.4.5A from TA INSTRUMENTS®.

Remark: listed apart in the source
[5] = Hygroscopicity / form stability versus relative humidity; type: physicochemical; settings: up to 70% relative humidity, without a form change

Structure (SMILES): COc1ccc2cc3[n+](cc2c1OC)CCc1cc2c(cc1-3)OCO2 [berberine chloride]
- loss of water ([1]; elevated temperature or low humidity environment): more than 8%
- uptake of water ([1]; in water or high humidity environment, converts to tetrahydrate form): about 8%
- solid form of solubility residue (powder X-ray pattern) [2]: converted berberine chloride tetrahydrate
- solubility in water [2]: less than 5 g/L
- aqueous solubility (literature value) [3]: 1.96 ± 0.11 mg/mL

Structure (SMILES): COc1ccc2c(c1OC)C(C1CCCCC1=O)N1CCc3cc4c(cc3C1=C2)OCO4 (stereo not drawn) [berberine cyclohexanone adduct]
- TGA mass loss [4]: 0.3%

Structure (SMILES): CCC(=O)CC1c2c(ccc(OC)c2OC)C=C2c3cc4c(cc3CCN21)OCO4 (stereo not drawn) [berberine methyl ethyl ketone adduct]
- TGA mass loss [4]: 0.4%
- melting point: ~ 130 °C

Structure (SMILES): COc1ccc2c(c1OC)C(CC(=O)CC(C)C)N1CCc3cc4c(cc3C1=C2)OCO4 (stereo not drawn) [berberine methyl isobutyl ketone adduct]
- TGA mass loss [4]: 0.3%

Structure (SMILES): COc1ccc2c(c1OC)C(CC(=O)C(C)C)N1CCc3cc4c(cc3C1=C2)OCO4 (stereo not drawn) [berberine methyl isopropyl ketone adduct]
- TGA mass loss [4]: 0.1%

Structure (SMILES): COc1ccc2c(c1OC)C(CC(=O)c1ccccc1)N1CCc3cc4c(cc3C1=C2)OCO4 (stereo not drawn) [berberine methyl phenyl ketone adduct]
- TGA mass loss [4]: 0.3%

Structure (SMILES): COc1ccc2c(c1OC)C(CC(C)=O)N1CCc3cc4c(cc3C1=C2)OCO4 (stereo not drawn) [crystalline berberine acetone adduct, berberine acetone adduct]
- TGA mass loss [4]: 0.3%

Structure (SMILES): COc1ccc2cc3[n+](cc2c1OC)CCc1cc2c(cc1-3)OCO2 [crystalline berberine ascorbate Form A, berberine ascorbate]
- hygroscopicity [5]: non-hygroscopic
- weight loss in thermal study ([4]; heated to about 150° C.): no significant weight loss
- TGA mass loss [4]: 0.4%
- aqueous solubility, times higher than commercial berberine hydrochloride [2]: more than 50 times
- solubility in water [2]: more than 250 g/L

Structure (SMILES): COc1ccc2cc3[n+](cc2c1OC)CCc1cc2c(cc1-3)OCO2 [crystalline berberine ascorbate Form B, berberine ascorbate]
- TGA mass loss [4]: 2.5%
